Laboratory results from PubChem BioAssay (NCI).
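Five compound concentrations were applied to cells in 96-well plates for 48 hours; endpoints were derived by simple linear interpolation of the resulting dose-response curve. At the TGI there is no net growth.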

What was measured:
Assay in all cases: inhibition of tumour cell growth, NCI panel, 48 h
[1] = tested on: SW-620 colon
[2] = tested on: DU-145 prostate
[3] = tested on: SK-MEL-28 melanoma
[4] = tested on: HCT-116 colon
[5] = tested on: HOP-62 NSCLC
[6] = tested on: SNB-75 CNS
[7] = tested on: MDA-N
[8] = tested on: UACC-257 melanoma
[9] = tested on: OVCAR-4 ovarian
[10] = tested on: NCI-H23 lung
[11] = tested on: MCF7 breast
[12] = tested on: K-562 leukemia
[13] = tested on: SK-MEL-2 melanoma
[14] = tested on: KM12 colon
[15] = tested on: NCI/ADR-RES ovarian
[16] = tested on: A549 NSCLC
[17] = tested on: MDA-MB-435
[18] = tested on: NCI-H460 lung
[19] = tested on: SK-OV-3 ovarian
[20] = tested on: SF-539 CNS
[21] = tested on: SN12C renal
[22] = tested on: OVCAR-8 ovarian
[23] = tested on: UO-31 renal
[24] = tested on: SF-295 CNS
[25] = tested on: ACHN renal
[26] = tested on: TK-10 renal
[27] = tested on: SK-MEL-5 melanoma
[28] = tested on: IGROV1 ovarian
[29] = tested on: COLO 205 colon
[30] = tested on: HS 578T breast
[31] = tested on: 786-0 renal
[32] = tested on: MOLT-4 leukemia
[33] = tested on: T-47D breast
[34] = tested on: SF-268 CNS
[35] = tested on: HCC-2998 colon
[36] = tested on: NCI-H226 lung
[37] = tested on: OVCAR-3 ovarian
[38] = tested on: U251 CNS
[39] = tested on: CCRF-CEM leukemia
[40] = tested on: UACC-62 melanoma
[41] = tested on: OVCAR-5 ovarian
[42] = tested on: A498 renal
[43] = tested on: HT29 colon
[44] = tested on: BT-549 breast
[45] = tested on: MDA-MB-231 breast
[46] = tested on: M14 melanoma
[47] = tested on: EKVX NSCLC
[48] = tested on: RXF 393 renal
[49] = tested on: SNB-19 CNS
[50] = tested on: HL-60(TB) leukemia
[51] = tested on: RPMI-8226 leukemia
[52] = tested on: MALME-3M melanoma
[53] = tested on: CAKI-1 renal
[54] = tested on: HOP-92 NSCLC
[55] = tested on: LOX IMVI melanoma
[56] = tested on: PC-3 prostate
[57] = tested on: HCT-15 colon
[58] = tested on: SR leukemia

Measured: TGI

CC(C)(C)[Si](C)(C)OCCc1ccccc1C1CC2(S(=O)(=O)c3ccccc3)ON1CC2S(=O)(=O)c1ccccc1 (configuration not stated)
not listed: [50] | [51] | [52] | [53] | [54] | [55] | [56] | [57] | [58]
> 100 µM: all other assays above

O=C1CC(Cc2n[nH]c3c2CCCC3)CC(=O)N1
not listed: [18] | [23] | [25] | [30] | [49]
> 100 µM: all other assays above
